Measured values published in US20110081428A1, “Use of thioflavin-like compounds to increase life span and/or health span” (priority 2009, published 2011).

Columns and labels:
Format in all cases: in vivo, Caenorhabditis elegans
HSF-1 RNA = assay: Real time quantitative PCR, hsf-1; settings: 50 μM ThT, 3, 6 and 12 days of treatment
Description: Twelve single adults from control or 50 μM ThT populations were picked after 3, 6 and 12 days of treatment into 5 μl of distilled water and flash frozen until extraction. Individual worms were extracted using the RNeasy Micro Kit, TissueLyser and QIAcube (Qiagen). Using the manufacturer's standard Animal Tissue protocol, each sample was homogenized in buffer RLT/Bme (Qiagen) on the TissueLyser (6 min total at 20 Hz). Samples, reagents and columns were then loaded into the QIAcube robot, and processed using the “RNeasy Micro—Animal tissues and cells—DNase digest” program. Each sample was then eluted in 14 μl of Nuclease-free water. cDNA templates for the Real Time PCR reactions were made using a combination of Message Sensor RT kit (Ambion's) and TaqMan PreAmp Master Mix (Applied Biosystems). The entire worm sample was added to the RT reaction and reversed transcribed at 50° C. for 20 min, using Message Sensor's “Two Step RT-PCR Protocol” (sample RT's were randomized). Then 2.5 μl of the cDNA sample was pre-amplified with a “4×Multiplex Primer Mix” for 14 cycles using TaqMan PreAmp master mix and protocol (ABI). Two modifications were made to ABI's protocol: 1. the reaction volume was reduced to 10 μl and 2. after pre-amplification, each cDNA sample was diluted 1:5 with 1XTE Buffer (Promega). cDNA samples were stored at −20° C. until needed. […]

HSP-70 = assay: Western blot HSP-70; settings: 50 μM ThT, 4 and 7 days of treatment
Description: Peptide corresponding to amino acids 110-145 ([…]; SEQ ID NO:1) of HSP-16.2 was used to commercially synthesize antiserum (Invitrogen). Briefly, KLH-peptide was emulsified by mixing with an equal volume of Freund's adjuvant and injected into three subcutaneous dorsal sites for a total of 0.1 mg of peptide for immunization. The animals (rabbits) were bled, the blood allowed to clot and the serum collected by centrifugation. Monoclonal HSP-70 and Polyclonal HSF-1 primary antibodies were from stressgen (N27F3-4 and SPA-901, respectively).
Worms were transferred to siliconized eppendorf tubes, washed once in S-basal and frozen in liquid N2. Standard SDS-PAGE was performed using (4-12%) NOVEX gels and IVIES running buffer. Following transfer PVDF (BioRad) membranes were incubated with antisera (1:10000) or primary antibodies (1:1000) diluted in blocking buffer and then with secondary, goat anti-rabbit IgG antibody/horseradish peroxidase conjugate (Pierce), diluted 1:25000. Detection was undertaken with chemiluminescent reagents (SuperSignal, Pierce) and standard autoradiography.

PS3551 [hsf-1(sy441)I] = assay: Lifespan assay, hsf-1 mutant; settings: 50 μM ThT, 100 μM curcumin
Description: Lifespan assays were performed as described previously. (McColl, G. et al. Pharmacogenetic analysis of lithium-induced delayed aging in Caenorhabditis elegans. J Biol Chem 283, 350-357 (2008). Briefly, the nematode growth media (NGM) plates were prepared under sterile conditions. 100 μL of concentrated stocks of each of the compounds used in this study were added onto a previously prepared NGM small plate (3 mL volume) immediately spread over the surface of the plate. The final concentrations quoted in the text assume an even distribution of compound throughout the 3 ml plate. The plates were then placed in a laminar flow hood at room temperature for 30 min and then 60 μL of a concentrated suspension of E. coli OP50 was spotted to form a circular lawn on the center of each plate. Thirty late L4 larvae growing at 20° C. were transferred to fresh NGM plates with FUdR (75 μM) in presence or absence of the specified compounds and incubated at 20° C. The first day of adulthood is Day 3 in survival curves. […] ThT concentration should be optimized depending on batch and purity and stability of the compound.
Animals were scored as alive, dead or lost every other day. […] Animals that died from causes other than ageing, such as sticking to the plate walls, internal hatching of eggs (“bagging”) or gonadal extrusion were censored as were lost worms. […]

[1] = system: UNC-52 (perlecan) in HE250; assay: Perlecan immunolocalization; settings: HE250, 50 μM ThT, 24 h at 25° C.
Description: For fluorescent microscopy, TJ356 zIs356 IV [daf-16::daf-16-gfp+rol-6] or CF2189 Is001(skn-1::gfp+rol-6) were paralyzed with 1 mM levamisole mounted on 1% agarose pads and imaged using Olympus BX51 (60× objective) and HCImage software (Hamamatsu). For immunofluorescence, N2, […], CB1157 unc-54(e1157) or CL4176 dvIs27 [myo-3::Aβ(3 to 42)-let 3′UTR(pAF29); pRF4 (rol-6(su1006))] worms were treated for 24-36 h with or without 50 μM ThT at 25° C. After this period the worms were collected, rinsed, and fixed in 4% paraformaldehyde overnight. […] Paramyosin and perlecans were detected with primary monoclonal antibodies 5-23 and MH3 (developed by Henry Epstein and Robert H. Waterston and obtained from the Developmental Studies Hybridoma Bank developed under the auspices of the NICHD and maintained by The University of Iowa, Department of Biology, Iowa City, Iowa 52242) and AlexaFluor 633 goat anti-mouse (Molecular Probes) as secondary antibody. Soluble oligomers and Aβ peptide were detected with anti polyclonal All (Invitrogen) and 6E10 monoclonal (Covance) primary antibodies, respectively, with AlexaFluor 568 goat anti-rabbit and AlexaFluor 488 goat anti-mouse (Molecular Probes) as secondary antibodies. Images were processed and quantified by using Image Analyst MK II (Novato, Calif.).

N2 worms = assay: Locomotory ability / spontaneous movement (body bends); settings: 50 μM ThT
Description: Data are presented as bends/min and represent the average of three independent experiments. *p<0.0001. e) Dose-response Kaplan-Meier survival curves of synchronously ageing hermaphrodite N2 populations exposed to 0 (control) to […], f) HBX and g) HBT at 20° C. (−) Control, (▪) 1 nM, ([…]) 10 μM, (▴) 100 μM, (▾) […]. Graphs are representative of three independent experiments.

**Q.** `Cc1ccc2c(c1)sc(-c1ccc(N(C)C)cc1)[n+]2C.[Cl-]` [ThT, 4-(3,6-dimethyl-1,3-benzothiazol-3-ium-2-yl)-N,N-dimethylaniline chloride] was tested. Which “HSF-1 RNA levels” value (HSF-1 RNA) did it give?
**A.** Its value is “no changes were detected”.

**Q.** And the HSP-70 protein levels (HSP-70)?
**A.** Its HSP-70 protein levels is “up-regulated”.

**Q.** What about the “lifespan of hsf-1(sy441) mutant” value (PS3551 [hsf-1(sy441)I]) of the same compound?
**A.** The value was “does not increase lifespan”.

**Q.** What about the perlecan organization [1] of the same compound?
**A.** Its perlecan organization is “restored perlecan organization”.

**Q.** And the “age-related decline in spontaneous movement” value (N2 worms)?
**A.** The value was “retarded age-related decline in spontaneous movement”.
